This is an account of results in US9931315B2, “Method of selectively inhibiting Ras-mediated tumor growth in humans” (ADT PHARMACEUTICALS, INC., priority 2014, dated 2018).

Holding throughout (type): cell-based, human
The subject of experiment [1] is HCT-116 colon tumor cells. Description: Cell growth inhibition (CellTiter-Glo), HCT-116 colon tumor cells expressing mutant Ras. The following applies: ratio IC50 HT-29 (WT Ras) / IC50 HCT-116 (mutant Ras), 5000 cells/well, 96-well plates. As to the method:
This example illustrates cell growth assays employed in the present invention. […] Normal rat kidney (NRK) and Ki-Ras transformed NRK cells (K-NRK) were obtained from ATCC, and were cultured according to supplier recommendations. CellTiter-Glo ATP cell growth assay reagents were obtained from Promega and used according to the manufacturer's protocol. Inhibitors of EGFR, Raf, and MEK were obtained from Selleck Chemicals. Cells were plated at a density of 5,000 cells per well in 96-well microplates or 1,250 cells per well in 384-well plates, and allowed to attach for at least 4 h. Test compounds were dissolved in dimethyl sulfoxide (DMSO), and this working stock was further diluted in growth medium for addition to cell cultures. Serial dilutions of the test compound were prepared in growth medium containing an equal amount of DMSO not exceeding 0.2% final concentration. Each compound concentration was tested in at least 3 separate samples per cell line. At the end of a 3-day treatment period, growth inhibition was analyzed using a bioluminescent assay of ATP concentration (Promega CellTiter-Glo) according to the manufacturer's protocol. Resulting luminescence was measured using the luminescence cartridge of the Molecular Devices Spectramax Paradigm microplate reader. Relative growth inhibition for each sample was determined by comparison with the values obtained for vehicle treated control samples. […] This example illustrates use of well-established human colon tumor cell lines with widely divergent Ras activation status to determine selectivity values for exemplary compounds of the present invention. […] Cells were plated at 5000 cells/well in 96-well plates, and viable cell numbers were measured using the Cell Titer Glo ATP luminescence assay (Promega). […] Cells were seeded in 384-well plates and allowed to attach. Ten-fold serial dilutions of compounds were tested. Each compound concentration was tested in at least 3 separate samples per cell line.
On the technique in general: ATP-based viability assays read luminescence as a measure of living cells.

The test system of the next experiment is A549 lung cancer cells. The experiment can be described thus: Cell growth inhibition (CellTiter-Glo ATP assay), A549 cells with mutant K-Ras. The following applies: for IC50: Homo sapiens, A549, 72 h, growth inhibition, three days treatment, K-Ras mutant lung cancer cells, read-out: A549 (Ras-activated) IC50; for Selectivity HT-29/A549: ratio IC50 HT-29 (WT Ras) / IC50 A549 (Ras-activated). As for the experimental part: This example illustrates cell growth assays employed in the present invention. Cells used in such assays included A-549, HT-29, MDA-MB-231, Colo-205, Caco2, HCT-116, SW-480, and DLD-1 human cancer cells obtained from the American Type Culture Collection (ATCC).
(§1) Human tumor cells were cultured using standard methods in RPMI-1640 growth medium supplemented with 5% fetal bovine serum (FBS). Normal rat kidney (NRK) and Ki-Ras transformed NRK cells (K-NRK) were obtained from ATCC, and were cultured according to supplier recommendations. CellTiter-Glo ATP cell growth assay reagents were obtained from Promega and used according to the manufacturer's protocol. Inhibitors of EGFR, Raf, and MEK were obtained from Selleck Chemicals. Cells were plated at a density of 5,000 cells per well in 96-well microplates or 1,250 cells per well in 384-well plates, and allowed to attach for at least 4 h. Test compounds were dissolved in dimethyl sulfoxide (DMSO), and this working stock was further diluted in growth medium for addition to cell cultures. Serial dilutions of the test compound were prepared in growth medium containing an equal amount of DMSO not exceeding 0.2% final concentration. Each compound concentration was tested in at least 3 separate samples per cell line. At the end of a 3-day treatment period, growth inhibition was analyzed using a bioluminescent assay of ATP concentration (Promega CellTiter-Glo) according to the manufacturer's protocol. Resulting luminescence was measured using the luminescence cartridge of the Molecular Devices Spectramax Paradigm microplate reader. Relative growth inhibition for each sample was determined by comparison with the values obtained for vehicle treated control samples. Growth inhibition values were plotted with the GraphPad Prism5 software using the 4-parameter logistic fit to obtain IC50 values, which corresponds to the growth inhibitory potency of the compound.
(§2) This example illustrates effects of exemplary compounds of the present invention on cancer cells having activated or mutated Ras compared to wild-type (WT) Ras. […] A549 lung cancer cells, which harbor a mutation in the K-Ras oncogene were treated for three days with the compounds.

A further experiment concerns HT-29 colon cancer cells. The experiment can be described thus: Cell growth inhibition (CellTiter-Glo ATP assay), HT-29 cells with wild-type Ras. The conditions noted are these: Homo sapiens, HT-29. As to the method: This example illustrates cell growth assays employed in the present invention.
as §1, with “Normal” for “Human tumor cells were cultured using standard methods in RPMI-1640 growth medium supplemented with 5% fetal bovine serum (FBS). Normal”
as §2
Cells were seeded in 384-well plates and allowed to attach. Ten-fold serial dilutions of compounds were tested. Each compound concentration was tested in at least 3 separate samples per cell line.

Setting [2] is: growth inhibition, colon cancer cells with wild-type Ras, Table 2, read-out: HT-29 (WT Ras) IC50.

Read-outs that look alike come from different tables or passages of the source.

On to `COc1cc(/C=C2/C(C)=C(CC(=O)NCc3ccco3)c3cc(F)ccc32)cc(OC)c1OC=O` [Compound 002, (Z)-2-(5-fluoro-1-(4-formoxy-3,5-dimethoxybenzylidene)-2-methyl-1H-inden-3-yl)-N-(furan-2-ylmethyl)acetamide], for which, in experiment [1], the HT-29/HCT-116 selectivity values was 112.
Consider `COc1ccc2c(c1)C(CC(=O)NCCN(C)C)=C(C)/C2=C/c1cc(OC)c(O)c(OC)c1` [Compound 003, (Z)—N-(2-(dimethylamino)ethyl)-2-(1-(4-hydroxy-3,5-dimethoxybenzylidene)-5-methoxy-2-methyl-1H-inden-3-yl)acetamide], for which the figures for the IC50 in the experiment on A549 lung cancer cells and with HT-29 colon cancer cells (setting [2]) were 3650 nM and 4120 nM, respectively. Further, the “Selectivity HT-29/A549” value in the experiment on A549 lung cancer cells is 1.
The like results for `COc1ccc2c(c1)C(CC(=O)NC1CCN(C)C1)=C(C)/C2=C/c1cc(OC)c(O)c(OC)c1` (stereo not drawn) [Compound 005, (Z)-2-(1-(4-hydroxy-3,5-dimethoxybenzylidene)-5-methoxy-2-methyl-1H-inden-3-yl)-N-(1-methylpyrrolidin-3-yl)acetamide] were, in that order, 5940 nM, 7190 nM and 1.
For `COc1ccc2c(c1)C(CC(=O)NCc1ccco1)=C(C)/C2=C/c1ccc(O)c(OC)c1` [Compound 012, (Z)—N-(furan-2-ylmethyl)-2-(1-(4-hydroxy-3-methoxybenzylidene)-5-methoxy-2-methyl-1H-inden-3-yl)acetamide], in that order: 170 nM, 900 nM and 5.
Consider `COc1ccc2c(c1)C(CC(=O)NCc1ccco1)=C(C)/C2=C/c1cc(Br)c(O)c(OC)c1` [Compound 013, (Z)-2-(1-(3-bromo-4-hydroxy-5-methoxybenzylidene)-5-methoxy-2-methyl-1H-inden-3-yl)-N-(furan-2-ylmethyl)acetamide], for which, in the experiment on A549 lung cancer cells, the IC50 (commonly the point on the concentration scale where inhibition reaches its midpoint) is 300 nM and the “Selectivity HT-29/A549” value is on record as 2. For the same molecule, the IC50 in the experiment on HT-29 colon cancer cells (setting [2]) worked out at 730 nM.
With `COc1ccc2c(c1)C(CC(=O)NCc1ccco1)=C(C)/C2=C/c1cc(Cl)c(O)c(OC)c1` [Compound 014, (Z)-2-(1-(3-chloro-4-hydroxy-5-methoxybenzylidene)-5-methoxy-2-methyl-1H-inden-3-yl)-N-(furan-2-ylmethyl)acetamide], in the experiment with A549 lung cancer cells, the IC50 stood at 110 nM and the “Selectivity HT-29/A549” value is listed as 5. Moreover, in the experiment with HT-29 colon cancer cells (setting [2]), the IC50 is 500 nM.
Consider `COc1cc(/C=C2/C(C)=C(CC(=O)NCc3ccccc3)c3cc(F)ccc32)cc(OC)c1O` [Compound 015, (Z)—N-benzyl-2-(5-fluoro-1-(4-hydroxy-3,5-dimethoxybenzylidene)-2-methyl-1H-inden-3-yl)acetamide], for which the HT-29/HCT-116 selectivity values in experiment [1] worked out at 80.
Still for that read-out and setting: with `COc1cc(/C=C2/C(C)=C(CC(=O)NCc3cccn3C)c3cc(F)ccc32)cc(OC)c1O` [Compound 019, (Z)-2-(5-fluoro-1-(4-hydroxy-3,5-dimethoxybenzylidene)-2-methyl-1H-inden-3-yl)-N-((1-methyl-1H-pyrrol-2-yl)methyl)acetamide] the figure was 188.
Turning to `COc1ccc2c(c1)C(CC(=O)NCc1ccc[nH]1)=C(C)/C2=C/c1cc(OC)c(O)c(OC)c1` [Compound 022, (Z)—N-((1H-pyrrol-2-yl)methyl)-2-(1-(4-hydroxy-3,5-dimethoxybenzylidene)-5-methoxy-2-methyl-1H-inden-3-yl)acetamide], in experiment [1], the HT-29/HCT-116 selectivity values was 117.
Turning to `COc1cc(/C=C2/C(C)=C(CC(=O)NCc3ccco3)c3cc(F)ccc32)cc(OC)c1OS(C)(=O)=O` [Compound 029, (Z)-2-(5-fluoro-1-(4-mesyloxy-3,5-dimethoxybenzylidene)-2-methyl-1H-inden-3-yl)-N-(furan-2-ylmethyl)acetamide], the HT-29/HCT-116 selectivity values in experiment [1] is given as 35.
Consider `OCCn1cc(-c2ccc3c(c2)CC/C3=N\O)c(-c2ccncc2)n1` [GDC0879, reference compound], for which the half-inhibitory concentration (IC50) in the experiment with HT-29 colon cancer cells (known Ras pathway inhibitors, 384-well plates, Table 4, read-out: HT-29 IC50) worked out at 23600 nM.
